From US8691865B2 (AbbVie Inc., priority 2008, dated 2014)

target: human Cav2.2 (Homo sapiens, UniProt Q00975); assay: Assessment of calcium channel activity using FLIPR (Ca2+ influx in IMR32 cells); format: cell-based; details: not given
How it was run: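 IC50 values derive from nonlinear sigmoidal fitting of percent inhibition, relative to inhibitor-free activity, of Ca2+ influx read by FLIPR. Cells were IMR32 human neuroblastoma, plated at 1−1.2×10^5 per well and grown 48 h at 37 °C.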

Sequence of human Cav2.2 (Q00975 whole entry): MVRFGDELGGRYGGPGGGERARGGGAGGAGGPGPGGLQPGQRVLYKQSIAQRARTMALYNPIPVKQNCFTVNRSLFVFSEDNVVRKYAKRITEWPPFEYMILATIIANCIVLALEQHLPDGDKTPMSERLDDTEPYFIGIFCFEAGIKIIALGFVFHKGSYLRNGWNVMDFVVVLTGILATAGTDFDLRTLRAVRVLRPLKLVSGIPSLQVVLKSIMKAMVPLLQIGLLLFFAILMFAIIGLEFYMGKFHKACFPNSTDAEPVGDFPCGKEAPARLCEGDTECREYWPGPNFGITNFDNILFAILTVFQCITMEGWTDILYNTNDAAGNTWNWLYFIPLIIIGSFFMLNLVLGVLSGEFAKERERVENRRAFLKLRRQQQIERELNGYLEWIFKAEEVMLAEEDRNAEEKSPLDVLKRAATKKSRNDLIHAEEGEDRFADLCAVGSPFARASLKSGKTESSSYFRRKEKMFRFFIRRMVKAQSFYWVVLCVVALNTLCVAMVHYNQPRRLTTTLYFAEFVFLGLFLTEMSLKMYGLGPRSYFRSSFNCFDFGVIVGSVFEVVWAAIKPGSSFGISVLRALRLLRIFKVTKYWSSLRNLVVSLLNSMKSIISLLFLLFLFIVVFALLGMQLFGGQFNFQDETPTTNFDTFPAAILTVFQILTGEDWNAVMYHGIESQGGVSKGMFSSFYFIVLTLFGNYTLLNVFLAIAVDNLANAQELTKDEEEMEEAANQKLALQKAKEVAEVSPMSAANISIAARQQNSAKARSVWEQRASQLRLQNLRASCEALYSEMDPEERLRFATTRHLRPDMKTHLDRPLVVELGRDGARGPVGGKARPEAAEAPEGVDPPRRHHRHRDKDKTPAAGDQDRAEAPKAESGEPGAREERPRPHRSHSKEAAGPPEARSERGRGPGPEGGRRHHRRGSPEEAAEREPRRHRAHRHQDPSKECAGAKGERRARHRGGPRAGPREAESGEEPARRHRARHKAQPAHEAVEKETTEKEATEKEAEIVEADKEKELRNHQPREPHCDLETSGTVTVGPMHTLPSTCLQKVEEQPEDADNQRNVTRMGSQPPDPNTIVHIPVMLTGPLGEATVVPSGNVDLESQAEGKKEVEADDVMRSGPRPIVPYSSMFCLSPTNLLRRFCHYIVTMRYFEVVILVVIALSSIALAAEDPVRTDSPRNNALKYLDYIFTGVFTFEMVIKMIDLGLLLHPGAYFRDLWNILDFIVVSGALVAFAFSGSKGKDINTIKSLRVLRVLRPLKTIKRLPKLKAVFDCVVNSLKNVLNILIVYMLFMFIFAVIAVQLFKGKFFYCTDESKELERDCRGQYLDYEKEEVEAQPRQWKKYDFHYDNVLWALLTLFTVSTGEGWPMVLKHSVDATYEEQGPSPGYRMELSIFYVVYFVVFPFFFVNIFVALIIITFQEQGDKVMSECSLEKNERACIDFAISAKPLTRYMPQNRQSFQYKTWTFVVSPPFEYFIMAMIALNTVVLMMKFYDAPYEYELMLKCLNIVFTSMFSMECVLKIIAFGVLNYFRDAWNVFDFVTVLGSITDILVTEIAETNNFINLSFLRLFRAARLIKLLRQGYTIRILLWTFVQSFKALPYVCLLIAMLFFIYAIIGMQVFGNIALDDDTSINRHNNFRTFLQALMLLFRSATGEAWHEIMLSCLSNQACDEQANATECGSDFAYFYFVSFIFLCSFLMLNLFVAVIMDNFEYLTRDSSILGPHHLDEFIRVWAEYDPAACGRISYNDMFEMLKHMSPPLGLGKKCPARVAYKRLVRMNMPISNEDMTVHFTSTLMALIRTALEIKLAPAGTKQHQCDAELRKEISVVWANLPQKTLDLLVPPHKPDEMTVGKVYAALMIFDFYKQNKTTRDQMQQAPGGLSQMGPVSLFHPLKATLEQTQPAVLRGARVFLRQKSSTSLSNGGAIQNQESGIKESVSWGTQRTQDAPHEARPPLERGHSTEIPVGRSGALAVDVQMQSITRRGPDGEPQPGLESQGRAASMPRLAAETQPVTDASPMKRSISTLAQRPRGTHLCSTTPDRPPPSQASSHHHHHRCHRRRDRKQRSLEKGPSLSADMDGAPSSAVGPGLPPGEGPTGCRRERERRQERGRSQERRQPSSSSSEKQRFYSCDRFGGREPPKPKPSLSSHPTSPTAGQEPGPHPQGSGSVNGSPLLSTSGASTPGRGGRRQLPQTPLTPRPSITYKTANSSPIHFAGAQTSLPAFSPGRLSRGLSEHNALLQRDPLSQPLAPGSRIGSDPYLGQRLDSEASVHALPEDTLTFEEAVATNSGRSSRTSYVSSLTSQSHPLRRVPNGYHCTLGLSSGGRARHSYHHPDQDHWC
Sequence of human Cav2.2 (P54289 25-956 partner limits assumed): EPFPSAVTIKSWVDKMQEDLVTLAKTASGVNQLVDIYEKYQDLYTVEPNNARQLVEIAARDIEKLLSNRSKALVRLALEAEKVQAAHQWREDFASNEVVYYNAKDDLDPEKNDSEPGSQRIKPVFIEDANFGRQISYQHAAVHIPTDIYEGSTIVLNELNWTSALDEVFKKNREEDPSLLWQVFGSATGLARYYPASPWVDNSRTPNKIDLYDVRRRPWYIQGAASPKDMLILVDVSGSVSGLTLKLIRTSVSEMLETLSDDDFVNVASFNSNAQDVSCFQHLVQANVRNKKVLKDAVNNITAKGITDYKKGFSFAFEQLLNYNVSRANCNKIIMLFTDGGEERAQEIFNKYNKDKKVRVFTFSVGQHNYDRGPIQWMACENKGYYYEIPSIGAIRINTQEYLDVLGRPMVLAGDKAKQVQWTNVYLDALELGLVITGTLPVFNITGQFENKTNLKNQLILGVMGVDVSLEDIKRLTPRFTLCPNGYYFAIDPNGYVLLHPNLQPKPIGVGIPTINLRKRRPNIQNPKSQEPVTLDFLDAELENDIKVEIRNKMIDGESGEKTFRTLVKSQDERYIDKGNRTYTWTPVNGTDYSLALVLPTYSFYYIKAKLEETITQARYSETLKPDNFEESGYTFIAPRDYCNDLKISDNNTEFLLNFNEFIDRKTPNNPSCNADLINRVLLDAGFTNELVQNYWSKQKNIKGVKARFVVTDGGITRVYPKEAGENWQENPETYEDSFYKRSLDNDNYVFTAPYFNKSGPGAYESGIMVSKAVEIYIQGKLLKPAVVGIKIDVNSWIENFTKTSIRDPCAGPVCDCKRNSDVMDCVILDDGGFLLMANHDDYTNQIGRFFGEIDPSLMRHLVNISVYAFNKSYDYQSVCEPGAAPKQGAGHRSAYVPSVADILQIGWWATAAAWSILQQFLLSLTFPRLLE
Sequence of human Cav2.2 (P54289 957-1103 partner limits assumed): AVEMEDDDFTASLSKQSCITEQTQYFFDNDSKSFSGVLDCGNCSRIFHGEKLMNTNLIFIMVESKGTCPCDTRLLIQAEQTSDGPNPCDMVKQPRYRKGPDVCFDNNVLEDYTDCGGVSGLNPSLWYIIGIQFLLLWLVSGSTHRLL
Sequence of human Cav2.2 (P54284 whole entry partner): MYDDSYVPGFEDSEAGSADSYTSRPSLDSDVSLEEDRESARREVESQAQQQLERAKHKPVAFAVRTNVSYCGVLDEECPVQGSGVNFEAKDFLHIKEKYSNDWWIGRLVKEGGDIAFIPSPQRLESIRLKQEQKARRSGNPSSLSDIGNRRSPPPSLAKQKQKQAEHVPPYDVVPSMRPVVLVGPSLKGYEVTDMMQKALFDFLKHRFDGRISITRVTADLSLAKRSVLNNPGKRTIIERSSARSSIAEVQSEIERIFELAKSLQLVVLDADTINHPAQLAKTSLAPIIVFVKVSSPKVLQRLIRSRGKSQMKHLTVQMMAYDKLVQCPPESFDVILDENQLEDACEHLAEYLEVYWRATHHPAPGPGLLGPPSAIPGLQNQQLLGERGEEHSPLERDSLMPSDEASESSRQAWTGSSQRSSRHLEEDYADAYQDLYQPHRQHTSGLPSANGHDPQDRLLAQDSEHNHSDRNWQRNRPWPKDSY

Compound	IC50 [µM]
CN[C@@H](CC1CC1)C(=O)N[C@H]1CC[C@@H]2CN(c3ccc(OC(F)(F)F)cc3)C[C@@H]21 [Example 775, 3-cyclopropyl-N^2-methyl-N-{(3aR,4S,6aS)-2-[4-(trifluoromethoxy)phenyl]octahydrocyclopenta[c]pyrrol-4-yl}-L-alaninamide]	2.77
CC(C)(C)CCN[C@H]1CC[C@@H]2CN(c3cccc(C(F)(F)F)n3)C[C@@H]21 [Example 611, (3aR,4S,6aS)-N-(3,3-dimethylbutyl)-2-[6-(trifluoromethyl)pyridin-2-yl]octahydrocyclopenta[c]pyrrol-4-amine]	0.5
CN[C@@H](CC(C)C)C(=O)N[C@H]1CC[C@@H]2CN(c3ccccc3Cl)C[C@@H]21 [Example 634, N-[(3aR,4S,6aS)-2-(2-chlorophenyl)octahydrocyclopenta[c]pyrrol-4-yl]-N^2-methyl-L-leucinamide]	2.39
FC(F)(F)c1cccc(N2C[C@H]3CC[C@H](NCc4c[nH]c5ccccc45)[C@H]3C2)n1 [Example 684, (3aR,4S,6aS)-N-(1H-indol-3-ylmethyl)-2-[6-(trifluoromethyl)pyridin-2-yl]octahydrocyclopenta[c]pyrrol-4-amine]	1.05
CC(C)C(C(=O)N[C@@H]1CC[C@H]2CN(Cc3ccccc3)C[C@H]21)C(C)C [Example 235, N-[(3aS,4R,6aR)-2-benzyloctahydrocyclopenta[c]pyrrol-4-yl]-2-isopropyl-3-methylbutanamide]	11
O=C(N[C@H]1CC[C@@H]2CN(c3ccnc(C(F)(F)F)c3)C[C@@H]21)[C@@H]1C[C@@H](F)CN1 [Example 638, (4R)-4-fluoro-N-{(3aR,4S,6aS)-2-[2-(trifluoromethyl)pyridin-4-yl]octahydrocyclopenta[c]pyrrol-4-yl}-L-prolinamide]	> 30
CN[C@@H](CC(C)C)C(=O)N[C@H]1CC[C@@H]2CN(c3ccc(F)cc3)C[C@@H]21 [Example 620, N-[(3aR,4S,6aS)-2-(4-fluorophenyl)octahydrocyclopenta[c]pyrrol-4-yl]-N^2-methyl-L-leucinamide]	5.31
CN[C@@H](CC(C)C)C(=O)N[C@H]1CC[C@@H]2CN(c3cccc(F)c3)C[C@@H]21 [Example 629, N-[(3aR,4S,6aS)-2-(3-fluorophenyl)octahydrocyclopenta[c]pyrrol-4-yl]-N^2-methyl-L-leucinamide]	4.22
O=C(N[C@H]1CC[C@@H]2CN(c3ccc(OC(F)(F)F)cc3)C[C@@H]21)[C@@H]1C[C@@H](F)CN1 [Example 631, (4R)-4-fluoro-N-{(3aR,4S,6aS)-2-[4-(trifluoromethoxy)phenyl]octahydrocyclopenta[c]pyrrol-4-yl}-L-prolinamide]	> 30
CN[C@@H](CC(C)C)C(=O)N[C@H]1CC[C@@H]2CN(c3nnc(C(F)(F)F)s3)C[C@@H]21 [Example 734, N^2-methyl-N-{(3aR,4S,6aS)-2-[5-(trifluoromethyl)-1,3,4-thiadiazol-2-yl]octahydrocyclopenta[c]pyrrol-4-yl}-L-leucinamide]	26.4
CC(C)CN[C@H]1CC[C@@H]2CN(c3cccc(C(F)(F)F)n3)C[C@@H]21 [Example 610, (3aR,4S,6aS)-N-isobutyl-2-[6-(trifluoromethyl)pyridin-2-yl]octahydrocyclopenta[c]pyrrol-4-amine]	2.01
CCC[C@H](NC)C(=O)N[C@@H]1CC[C@H]2CN(Cc3ccc(C(F)(F)F)cc3)C[C@H]21 [Example 371, N^2-methyl-N^1-{(3aS,4R,6aR)-2-[4-(trifluoromethyl)benzyl]octahydrocyclopenta[c]pyrrol-4-yl}-L-norvalinamide]	8.88
O=C(N[C@H]1CC[C@@H]2CN(c3ccccc3C(F)(F)F)C[C@@H]21)[C@@H]1C[C@@H](F)CN1 [Example 622, (4R)-4-fluoro-N-{(3aR,4S,6aS)-2-[2-(trifluoromethyl)phenyl]octahydrocyclopenta[c]pyrrol-4-yl}-L-prolinamide]	1.69
O=S(=O)(c1ccc(C(F)(F)F)cc1)N1C[C@H]2CC[C@H](NCc3cc4cc(F)ccc4[nH]3)[C@H]2C1 [Example 654, (3aR,4S,6aS)-N-[(5-fluoro-1H-indol-2-yl)methyl]-2-{[4-(trifluoromethyl)phenyl]sulfonyl}octahydrocyclopenta[c]pyrrol-4-amine]	0.82
FC(F)(F)c1cccc(N2C[C@H]3CC[C@H](NCc4ccc5nsnc5c4)[C@H]3C2)n1 [Example 732, (3aR,4S,6aS)-N-(2,1,3-benzothiadiazol-5-ylmethyl)-2-[6-(trifluoromethyl)pyridin-2-yl]octahydrocyclopenta[c]pyrrol-4-amine]	0.56
Fc1ccc2c(CN[C@H]3CC[C@@H]4CN(c5cccc(C(F)(F)F)n5)C[C@@H]43)c[nH]c2c1 [Example 686, (3aR,4S,6aS)-N-[(6-fluoro-1H-indol-3-yl)methyl]-2-[6-(trifluoromethyl)pyridin-2-yl]octahydrocyclopenta[c]pyrrol-4-amine]	0.88
CN[C@@H](CC(C)C)C(=O)N[C@H]1CC[C@@H]2CN(c3cccc(C(F)(F)F)n3)C[C@@H]21 [Example 590, N^2-methyl-N-{(3aR,4S,6aS)-2-[6-(trifluoromethyl)pyridin-2-yl]octahydrocyclopenta[c]pyrrol-4-yl}-L-leucinamide]	0.45
C[C@H](C(=O)N[C@H]1CC[C@H]2CN(Cc3ccccc3)C[C@H]21)c1cccc(C(=O)c2ccccc2)c1 (relative stereo) [Example 12, (2S)-2-(3-benzoylphenyl)-N-[(3aS*,4S*,6aR*)-2-benzyloctahydrocyclopenta[c]pyrrol-4-yl]propanamide]	1.22
O=C(N[C@H]1CC[C@@H]2CN(c3ccc(Cl)cc3)C[C@@H]21)[C@@H]1C[C@@H](F)CN1 [Example 644, (4R)-N-[(3aR,4S,6aS)-2-(4-chlorophenyl)octahydrocyclopenta[c]pyrrol-4-yl]-4-fluoro-L-prolinamide]	8.5

same assay, conditions: read-out: IC50 (μM) or percent inhibition (* indicates 3 minute incubation, otherwise 60 minute); IC50; 60 minute pre-incubation with compound; IMR32 cells, 80 mM KCl depolarization

Compound	IC50 [µM]
CC(C)C[C@@H](N)C(=O)N[C@@H]1CC[C@@H]2CN(Cc3cccc(C(F)(F)F)c3)C[C@@H]21 (stereo in doubt) [Example 159, N^1-{(3aR*,4R*,6aS*)-2-[3-(trifluoromethyl)benzyl]octahydrocyclopenta[c]pyrrol-4-yl}-D-leucinamide]	5.55
CC(C)C[C@H](NS(C)(=O)=O)C(=O)N[C@@H]1CC[C@H]2CN(Cc3ccccc3)C[C@H]21 [Example 243, N^1-[(3aS,4R,6aR)-2-benzyloctahydrocyclopenta[c]pyrrol-4-yl]-N^2-(methylsulfonyl)-L-leucinamide]	8.58
Cc1ccc(CN2C[C@@H]3CC[C@H](NC(=O)C(C4CCCCC4)C4CCCCC4)[C@@H]3C2)cc1 [Example 62, 2,2-dicyclohexyl-N-[(3aS,4S,6aR)-2-(4-methylbenzyl)octahydrocyclopenta[c]pyrrol-4-yl]acetamide]	1.64
CCN(CC)[C@H]1CC[C@@H]2CN(S(=O)(=O)c3ccc(C(F)(F)F)cc3)C[C@@H]21 [Example 289, (3aR,4S,6aS)-N,N-diethyl-2-{[4-(trifluoromethyl)phenyl]sulfonyl}octahydrocyclopenta[c]pyrrol-4-amine]	9.75
CC(C)(C)OC(=O)N[C@H](C(=O)N[C@H]1CC[C@@H]2CN(Cc3ccccc3)C[C@@H]21)C(C)(C)C [Example 225, tert-butyl(S)-1-((3aR,4S,6aS)-2-benzyloctahydrocyclopenta[c]pyrrol-4-ylamino)-3,3-dimethyl-1-oxobutan-2-ylcarbamate]	9.36
O=C(N[C@H]1CC[C@H]2CN(Cc3ccc(F)c(C(F)(F)F)c3)C[C@H]21)C(C1CCCCC1)C1CCCCC1 [Example 57, 2,2-dicyclohexyl-N-{(3aS,4S,6aR)-2-[4-fluoro-3-(trifluoromethyl)benzyl]octahydrocyclopenta[c]pyrrol-4-yl}acetamide]	0.29
CC(C)C[C@@H](C(=O)N[C@@H]1CC[C@H]2CN(Cc3cccc(C(F)(F)F)c3)C[C@H]21)N(C)C(=O)C(C)(C)C [Example 176, N^2-(2,2-dimethylpropanoyl)-N^2-methyl-N^1-{(3aS,4R,6aR)-2-[3-(trifluoromethyl)benzyl]octahydrocyclopenta[c]pyrrol-4-yl}-L-leucinamide]	0.86
CC(C)C[C@H](NS(C)(=O)=O)C(=O)N[C@@H]1CC[C@H]2CN(Cc3cccc(C(F)(F)F)c3)C[C@H]21 [Example 170, N^2-(methylsulfonyl)-N^1-{(3aS,4R,6aR)-2-[3-(trifluoromethyl)benzyl]octahydrocyclopenta[c]pyrrol-4-yl}-L-leucinamide]	4.55
CCN(CC)[C@H]1CC[C@@H]2CN(S(=O)(=O)c3ccc(C(F)(F)F)cc3Cl)C[C@@H]21 [Example 294, (3aR,4S,6aS)-2-{[2-chloro-4-(trifluoromethyl)phenyl]sulfonyl}-N,N-diethyloctahydrocyclopenta[c]pyrrol-4-amine]	7.8
CC(C)C[C@H](NCC(C)(C)C)C(=O)N[C@H]1CC[C@@H]2CN(Cc3ccccc3)C[C@@H]21 [Example 244, N^1-[(3aR,4S,6aS)-2-benzyloctahydrocyclopenta[c]pyrrol-4-yl]-N^2-neopentyl-L-leucinamide]	9.11
CCC[C@H](NC)C(=O)N[C@H]1CC[C@@H]2CN(S(=O)(=O)c3cccs3)C[C@@H]21 [Example 533, N^2-methyl-N^1-[(3aR,4S,6aS)-2-(thien-2-ylsulfonyl)octahydrocyclopenta[c]pyrrol-4-yl]-L-norvalinamide]	9.68
O=S(=O)(c1ccc(C(F)(F)F)cc1Cl)N1C[C@H]2CC[C@H](Nc3ccc(C(F)(F)F)cn3)[C@H]2C1 [Example 295, (3aR,4S,6aS)-2-{[2-chloro-4-(trifluoromethyl)phenyl]sulfonyl}-N-[5-(trifluoromethyl)pyridin-2-yl]octahydrocyclopenta[c]pyrrol-4-amine]	2.98
CC[C@H](C(=O)N[C@H]1CC[C@@H]2CN(Cc3ccccc3)C[C@@H]21)c1ccccc1 [Example 33, (2S)-N-[(3aR,4S,6aS)-2-benzyloctahydrocyclopenta[c]pyrrol-4-yl]-2-phenylbutanamide]	7.41
